Where two headings read alike, the source gives them in different places.
What was measured:
[1] = cited from earlier work
[2] = tested on: uterine smooth muscle induced by oxytocin; assay: Contraction of uterine smooth muscle induced by oxytocin; parameters: species or system Wister rats; contraction frequency: unit not given here; conditions: for contraction frequency: oxytocin 10 mu/ml alone; for contraction activity / contraction activity, controlling % / contraction frequency, controlling % / contraction range / contraction range, controlling %: oxytocin alone
Description: (§1) Twenty-four hours prior to the experiment, intramuscularly inject non-pregnant female rats with a 0.3 mg/kg weight-dose of Dihydrotheelin. The effect artificially puts them in estrus period so as to increase their sensitivity to the CCP. Decapitate the rats, rapidly paunch, take out the uterus and remove the fat. Cut the uterus in 2 cm of length and put it directly in the homothermic flume with 9 ml of the Locke's solution. One end of the uterus must be fixed on the crotchet of the L shaped ventilating pipe and the other end connected to the Muscle Tension Transducer. Keep the temperature of the homothermic flume at 32° C. Continuously emit oxygen into the fume, at least 60-80 bladders per minute and add in 1 ml of the previous solution with a different concentration. After recording a segment of normal contraction curve, observe the different phases before-and-after administering the drug. Respectively, record the contraction frequency and range. Observe from 1 to 10, 10 to 20, and 20 to 30 minutes before-and-after adding the drug solution. Count the uterine activity, and record data between control groups before-and-after administering the drug.
Observe CCP's effect in smooth muscle contraction of rats' extracorporeal uterine induced by oxytocin. Respectively, record the contraction frequency and range. Observe from 1 to 10, 10 to 20, and 20 to 30 minutes before-and-after adding the drug solution. Count the uterine activity and the inhibitory percentage. Record data as previously done.
Animals' Grouping: randomly divide Wister female rats' extra-corporeal uteruses into normal saline control group (NSG) and CCP's group. The CCP's group is formed by 4 subgroups with seven uteruses each. The dose of CCP's extract is respectively 5.4, 2.7, 1.3, and 0.6 mg/ml.
Results: after adding 10 mu/ml oxytocin to the normal uterine smooth muscle there is an increase of the contraction frequency and the uterine activity. The contraction range is also affected reaching its peak for about 10 min to then stabilize on the level. After 40 minutes, the effect gradually drops. After the oxytocin reacts for 10 minutes, add in a different dose of CCP's extract, and compare the possible differences between the CCP's group and the oxytocin's group. A 5.4, 2.7 mg/ml dose of CCP's extract can control the increase of uterine activity induced by oxytocin, and mainly reduce contraction frequency of uterine smooth muscle (See Table 8 and 13).

mice bone marrow cells = assay: Micronucleus test; type: in vivo, ICR mouse
Description: 30 mice were randomly divided into 5 groups, each group contained 6 animals. Three of the groups were drug-groups and animals in them were given to CCP by gastric gavage at doses of 2.5 g/kg/day, 1.25 g/kg/day and 0.625 g/kg/day for 2 days. (LD50 of CCP from an acute toxicity test was 5 g/Kg, we adopted a half dose for our study). The fourth group is given to normal saline (0.5 ml/mice) as a negative control group. The last group was given to cyclophosphamide(CP) at 40 mg/Kg via abdominal cavity injection as a positive control group.
Animals were killed 24 hours after administration. Both femurs of the mice were taken for sampling. Femurs were pressed to move out the marrow, with a drop of calf serum added to it, smear the marrow on a plate. After the smeared plate was fixed in the solution of methyl for 10 minutes, it was dyed with the Giemsa's method and observed under the oil lens of a microscope. In the principle of double-blinded study, PCE and MNPCE cells were counted. 1000 PCE and MNPCE cell were counted for each mice, calculated the ratio of micronuclei over the 1000 cells. The ratio of micronuclei represents the dose-effectiveness relation. The data was analyzed with statistical t test.

[3] = tested on: rats' extra-corporeal uterine smooth muscle; assay: Contraction of normal rats' extra-corporeal uterine smooth muscle; parameters: species or system Wister rats; conditions: 7 μg/ml
Description: a) Put 5.4g extract of CCP in 100 ml of the Locke's solution and mixed thoroughly. The drug concentration results in 54 mg/ml. Take 1 ml of this solution, put it into a homothermic flume with 9 ml of the Locke's solution. The drug concentration from this mixture contains 5.4 mg/ml. Likewise, put 2.7 g extract of CCP in 100 ml of the Locke's solution and mixed thoroughly. Take 1 ml of this mixture, combine it with 9 ml of Locke's solution and the drug concentration will result in 2.7 mg/ml. Mix up 100 ml of the Locke's solution with a 1.9 g CCP's extract. Take 1 ml of this mixture, combine it with 9 ml of the Locke's solution and the drug concentration will result in 1.9 mg/ml. Mix 200 ml of the Locke's solution with 2.6 of CCP's extract, the concentration will result in 13 mg/ml. Take 1 ml of this mixture, combine it with 9 ml of the Locke's solution which results in a drug concentration of 1.3 mg/ml. Mix 200 ml or 300 ml of the Locke's solution with 1.8 CCP's resulting in a drug concentration of 9 mg/ml and 6 mg/ml respectively. Take 1 ml of this mixture into homothermic flume with 9 ml of the Locke's solution. The result is a drug concentration containing 0.9 mg/ml and 0.6 mg/ml respectively
9.0 of NaCL, 0.42 of KCL, 0.24 of CaCL2, 0.2 of NaHCO3 and 1.0 g of glucose. Mixed with distilled water until obtaining 1000 ml. PH is about 7.
as §1
Animals' Grouping: randomly divide the Wister female rats' extracorporeal uteruses into a normal saline control group (NSG) and a CCP group (CCPG). […]

[4] = cyclophosphamide 40 mg/Kg, per 1000 cells

In the case of N#C[C@H](O[C@@H]1O[C@H](CO[C@@H]2O[C@H](CO)[C@@H](O)[C@H](O)[C@H]2O)[C@@H](O)[C@H](O)[C@H]1O)c1ccccc1 [Amygdalin, Benzeneacetonitrile, α-[(6-O-β-D-glucopyranosyl-β-D-glucopyranosyl)oxy]-, (R)—], the “volume in which 1 g resolves” value ([1]; boiling ethanol) is listed as 11 mL, the “volume in which 1 g resolves” value ([1]; ethanol) is listed as 900 mL and the “volume in which 1 g resolves” value ([1]; water) is listed as 12 mL.
CC[C@H](C)[C@@H]1NC(=O)[C@H](Cc2ccc(O)cc2)NC(=O)[C@@H](N)CSSC[C@@H](C(=O)N2CCC[C@H]2C(=O)N[C@@H](CC(C)C)C(=O)NCC(N)=O)NC(=O)[C@H](CC(N)=O)NC(=O)[C@H](CCC(N)=O)NC1=O [Oxytocin] showed a contraction frequency ([2]; after adm. 1-10 mins) of 11.7 ± 1.5, a contraction frequency ([2]; after adm. 10-20 mins) of 11.6 ± 1.9 and a contraction frequency ([2]; after adm. 20-30 mins) of 10.9 ± 1.17. For the same compound, the contraction frequency ([2]; before adm.) was 7.0 ± 1.3, the contraction activity ([2]; after adm. 1-10 mins) was 118.8 ± 77.6% and the “contraction activity, controlling %” value ([2]; after adm. 1-10 mins) was −108.8%. The “contraction frequency, controlling %” value ([2]; after adm. 1-10 mins) was −67.1%, the contraction range ([2]; after adm. 1-10 mins) was 9.7 ± 5.0 mm and the “contraction range, controlling %” value ([2]; after adm. 1-10 mins) was −21.3%. The contraction activity ([2]; after adm. 10-20 mins) was 129.6 ± 97.3%, the “contraction activity, controlling %” value ([2]; after adm. 10-20 mins) was −127.8% and the “contraction frequency, controlling %” value ([2]; after adm. 10-20 mins) was −65.7%. For the same compound, the contraction range ([2]; after adm. 10-20 mins) was 10.4 ± 5.7 mm, the “contraction range, controlling %” value ([2]; after adm. 10-20 mins) was −30.0% and the contraction activity ([2]; after adm. 20-30 mins) was 111.2 ± 86.5%. The “contraction activity, controlling %” value ([2]; after adm. 20-30 mins) was −95.4%, the “contraction frequency, controlling %” value ([2]; after adm. 20-30 mins) was −55.7% and the contraction range ([2]; after adm. 20-30 mins) was 9.7 ± 6.1 mm. The “contraction range, controlling %” value ([2]; after adm. 20-30 mins) was −21.3%, the contraction activity ([2]; before adm.) was 56.9 ± 21.6% and the contraction range ([2]; before adm.) was 8.0 ± 2.6 mm. The “contraction range, controlling %” value ([2]; column Before adm.) was 8.8%, the contraction activity ([2]; column Oxytocin) was 84.7 ± 22.0% and the “contraction activity, controlling %” value ([2]; column Oxytocin) was −48.9%. The “contraction frequency, controlling %” value ([2]; column Oxytocin) was −91.4% and the contraction range ([2]; column Oxytocin) was 7.3 ± 3.2 mm.
For O=P1(N(CCCl)CCCl)NCCCO1 (stereo not shown) [Positive control, cyclophosphamide], the “number of Micronuclei” value (mice bone marrow cells; cyclophosphamide 40 mg/Kg abdominal cavity injection, 6000 PCE cells) was 381, the “incidence of micronuclei, Range” value (mice bone marrow cells; [4]) was 43-98 and the “incidence of micronuclei, X ± SD” value (mice bone marrow cells; [4]) was 63.5000 ± 20.6373. The “incidence of micronucleus” value (mice bone marrow cells; cyclophosphamide injection 40 mg/Kg) was “obviously higher than the negative control”.
With Pregnendione [Progestin] the “contraction frequency of rats' uterine smooth muscle” value [3] was “can control contraction frequency”, the contraction frequency ([3]; after adm. 0-20 mins) was 6.3 ± 2.5 time/10 mins and the contraction activity ([3]; after adm. 1-10 mins) was 47.2 ± 22.9%. For the same compound, the “contraction activity, controlling %” value ([3]; after adm. 1-10 mins) was 31.9%, the contraction frequency ([3]; after adm. 1-10 mins) was 6.1 ± 2.0 time/10 mins and the “contraction frequency, controlling percentage” value ([3]; after adm. 1-10 mins) was 23.8%. For the same compound, the contraction range ([3]; after adm. 1-10 mins) was 7.4 ± 2.3 mm, the “contraction range, controlling percent” value ([3]; after adm. 1-10 mins) was 14.0% and the contraction activity ([3]; after adm. 10-20 mins) was 46.3 ± 27.9%. For the same compound, the “contraction activity, controlling %” value ([3]; after adm. 10-20 mins) was 33.2%, the “contraction frequency, controlling percentage” value ([3]; after adm. 10-20 mins) was 21.3% and the contraction range ([3]; after adm. 10-20 mins) was 7.0 ± 2.6 mm. For the same compound, the “contraction range, controlling percent” value ([3]; after adm. 10-20 mins) was 18.6%, the contraction activity ([3]; after adm. 20-30 mins) was 35.2 ± 22.5% and the “contraction activity, controlling %” value ([3]; after adm. 20-30 mins) was 49.2%. The contraction frequency ([3]; after adm. 20-30 mins) was 5.0 ± 2.4 time/10 mins, the “contraction frequency, controlling percentage” value ([3]; after adm. 20-30 mins) was 37.5% and the contraction range ([3]; after adm. 20-30 mins) was 7.0 ± 2.8 mm. The “contraction range, controlling percent” value ([3]; after adm. 20-30 mins) was 18.6%, the contraction activity ([3]; before adm.) was 69.3 ± 20.9% and the contraction frequency ([3]; before adm.) was 8.0 ± 0.8 time/10 mins. For the same compound, the contraction range ([3]; before adm.) was 8.6 ± 2.2 mm.
